We go through 4 compounds from patent US20260364038A1, “VASODILATOR, NITRIC OXIDE SYNTHASE PRODUCTION PROMOTER, AND USE OF SAME” (J-OIL MILLS, INC., priority 2022, published 2026).

Experiment [1] relates to endothelial nitric oxide synthase (eNOS) genetic expression in HUVECs. Nature of the experiment: Relative eNOS genetic expression amount in HUVECs (OneStep real-time RT-PCR, Taqman probe, ddCt method). As to conditions: 24 hours; for Relative eNOS genetic expression amount, Significant difference: vs control example 1, Dunnett's test; for action for promoting production of endothelial nitric oxide synthase (conclusion in words): 30 μM; for fold induction at 30 µM / fold induction at 1 µM: Homo sapiens, HUVEC. The class given is cell-based. How it is done: HUVECs (made by Lonza; catalog no.: C2519AS)
EGM-2 (made by Lonza; catalog no.: CC-3162)
The substances under test in (1) to (3) below were each dissolved in dimethyl sulfoxide (DMSO) (made by Nacalai Tesque) to prepare solutions having a concentration of 30 mM, and the solutions were added to the culture medium at a 1/1000 proportion to prepare culture media in which the target final concentration of the respective substances under test was 30 μM (Examples 1 to 3).
• (1) Tetradecanoic acid (C14:0) (purity: 100%; made by Sigma-Aldrich) • (2) Pentadecanoic acid (C15:0) (purity: 98.8%; made by Sigma-Aldrich) • (3) Tridecanoic acid (C13:0) (purity: 99.2%; made by Sigma-Aldrich) • (4) Fluvastatin (made by Tokyo Chemical Industry Co., Ltd.; model no.: F0820)
The HUVECs were thawed in a T75 flask and cultured in a CO2 incubator (“SCA-165DRS” made by Astec Co., Ltd.; conditions: 37 °C, 5% CO2, humid; same below) using the EGM-2. The cells were isolated using a 0.05% concentration trypsin solution (“Trypsin-EDTA (0.05%), phenol red” made by Thermo Fisher Scientific; catalog no.: 25300054), sown in a 96-well plate using the culture medium, and cultured in the CO2 incubator. The next day, the culture medium was replaced with the culture media prepared in section “(3. Preparation of substances under test)” above, and the cells were then cultured for 24 hours in the CO2 incubator to carry out treatment using the substances under test.
[5. RNA Extraction, qPCR]
After the treatment, a culture medium supernatant was recovered, RNA was extracted from the cells using a FastLane Cell Probe kit (made by QIAGEN; catalog no.: 215011), OneStep real-time RT-PCR was carried out using a Taqman probe, and the relative eNOS genetic expression amount was calculated by means of the ddCt method. The relative eNOS genetic expression amount was derived by dividing the eNOS genetic expression amount by the GAPDH genetic expression amount.
A significant difference between the substance-under-test treatment groups (control example 2 and the examples) and control example 1 was certified by means of Dunnett's test.
For orientation: Quantitative PCR measures a nucleic acid by following its amplification.

Experiment [2] has as its system endothelial nitric oxide synthase. The note with it: positive control; stated as known; cited from earlier work.
Where [3] appears, read: 30 μM final concentration, average of n1-n5, control example 1 (none added) = 1.00, read-out: Relative eNOS genetic expression amount, Average value of n1-n5.
Setting [4] is: 30 μM final concentration, replicate n1, eNOS/GAPDH, relative to control example 1, read-out: Relative eNOS genetic expression amount, n1.
[5] abbreviates: 30 μM final concentration, replicate n2, eNOS/GAPDH, relative to control example 1, read-out: Relative eNOS genetic expression amount, n2.
[6] abbreviates: 30 μM final concentration, replicate n3, eNOS/GAPDH, relative to control example 1, read-out: Relative eNOS genetic expression amount, n3.
Where [7] appears, read: 30 μM final concentration, replicate n4, eNOS/GAPDH, relative to control example 1, read-out: Relative eNOS genetic expression amount, n4.
Setting [8] is: 30 μM final concentration, replicate n5, eNOS/GAPDH, relative to control example 1, read-out: Relative eNOS genetic expression amount, n5.

The structures appear in SMILES notation. Read-outs that look alike come from different tables or passages of the source.

`CCCCCCCCCCCCCC(=O)O` [Example 1, Tetradecanoic acid]: the “Relative eNOS genetic expression amount, Significant difference” value in experiment [1] (30 μM final concentration) is “** (Level of significance across both sides: 1%)”. Also, the “action for promoting production of endothelial nitric oxide synthase (conclusion in words)” value (shortened to “action for promoting production”) in experiment [1] was “have an action for promoting production of endothelial nitric oxide synthase”. Also, the fold induction at 30 µM in experiment [1] (setting [3]) stood at 1.26; in experiment [1] (setting [4]), 1.27; in experiment [1] (setting [5]) it was 1.26; in experiment [1] (setting [6]) it was 1.31; in experiment [1] (setting [7]) it was 1.12; in experiment [1] (setting [8]), 1.33.
With `CCCCCCCCCCCCCCC(=O)O` [Example 2, Pentadecanoic acid], the “Relative eNOS genetic expression amount, Significant difference” value in experiment [1] (30 μM final concentration) was “** (Level of significance across both sides: 1%)”. The “action for promoting production” value in experiment [1] is “have an action for promoting production of endothelial nitric oxide synthase”. For the same compound, the fold induction at 30 µM in experiment [1] (setting [3]) came out at 1.26; in experiment [1] (setting [4]) it was 1.15; in experiment [1] (setting [5]) it was 1.28; in experiment [1] (setting [6]) it was 1.2; in experiment [1] (setting [7]), 1.36; in experiment [1] (setting [8]) it was 1.3.
Consider `CCCCCCCCCCCCC(=O)O` [Example 3, Tridecanoic acid], for which, in experiment [1] (30 μM final concentration), the “Relative eNOS genetic expression amount, Significant difference” value was “** (Level of significance across both sides: 1%)”. In addition, the “action for promoting production” value in experiment [1] is on record as “have an action for promoting production of endothelial nitric oxide synthase”. Besides, the fold induction at 30 µM in experiment [1] (setting [3]) is 1.25; in experiment [1] (setting [4]), 1.15; in experiment [1] (setting [5]), 1.33; in experiment [1] (setting [6]) it was 1.26; in experiment [1] (setting [7]), 1.28; in experiment [1] (setting [8]) it was 1.24.
For `CC(C)n1c(/C=C/C(O)CC(O)CC(=O)O)c(-c2ccc(F)cc2)c2ccccc21` (stereo not drawn) [Fluvastatin, reference compound], the “Relative eNOS genetic expression amount (in words)” value in experiment [1] (1 μM (control example 2), compared with control example 1) is given as “significantly higher than that in control example 1”. Also, the “Relative eNOS genetic expression amount, Significant difference” value in experiment [1] (1 μM final concentration (positive control)) is “** (Level of significance across both sides: 1%)”. Also, the fold induction at 1 µM came to 2.62 in experiment [1] (1 μM final concentration (positive control), average of n1-n5, control example 1 (none added) = 1.00, read-out: Relative eNOS genetic expression amount, Average value of n1-n5); 2.45 in experiment [1] (1 μM final concentration (positive control), replicate n1, eNOS/GAPDH, relative to control example 1, read-out: Relative eNOS genetic expression amount, n1); 2.57 in experiment [1] (1 μM final concentration (positive control), replicate n2, eNOS/GAPDH, relative to control example 1, read-out: Relative eNOS genetic expression amount, n2); 2.57 in experiment [1] (1 μM final concentration (positive control), replicate n3, eNOS/GAPDH, relative to control example 1, read-out: Relative eNOS genetic expression amount, n3); 2.89 in experiment [1] (1 μM final concentration (positive control), replicate n4, eNOS/GAPDH, relative to control example 1, read-out: Relative eNOS genetic expression amount, n4); 2.61 in experiment [1] (1 μM final concentration (positive control), replicate n5, eNOS/GAPDH, relative to control example 1, read-out: Relative eNOS genetic expression amount, n5). The “known action for promoting the production of endothelial nitric oxide synthase” value in experiment [2] is reported as “known to have an action for promoting the production of endothelial nitric oxide synthase”.
